Source: patent US11084800B2 (Achillion Pharmaceuticals, Inc., priority 2017, dated 2021)

target: Human Factor D (Homo sapiens (Human), UniProt P00746); assay: Human Factor D Assay; type: biochemical; conditions: Factor D inhibition, assay of Example 10; read-out: IC5 (Stars)
Method in brief: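 Serum-purified Factor D (80 nM final) preincubated 5 min at room temperature with compound in 50 mM Tris, 1 M NaCl, pH 7.5. Z-L-Lys-SBz and DTNB added at 100 μM each; A405 followed every 30 s for 30 min. IC50 from nonlinear regression of rates versus concentration.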

Sequence of Human Factor D (P00746 26-253): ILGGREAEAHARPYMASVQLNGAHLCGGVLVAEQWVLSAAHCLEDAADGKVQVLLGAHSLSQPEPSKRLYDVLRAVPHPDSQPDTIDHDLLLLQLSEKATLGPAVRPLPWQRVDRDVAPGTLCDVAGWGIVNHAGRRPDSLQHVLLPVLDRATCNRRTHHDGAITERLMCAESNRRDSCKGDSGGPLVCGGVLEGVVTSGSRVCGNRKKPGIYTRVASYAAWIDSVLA

| Structure (SMILES) | IC50 [µM] |
| --- | --- |
| CC(=O)c1nn(CC(=O)N2[C@H](C(=O)N[C@@H](CC(C)C)C(=O)O)C[C@@]3(C)C[C@@H]23)c2c(C)cc(-c3cnc(C)nc3)cc12 [Compound 458, ((1R,3S,5R)-2-(2-(3-acetyl-7-methyl-5-(2-methylpyrimidin-5-yl)-1H-indazol-1-yl)acetyl)-5-methyl-2-azabicyclo[3.1.0]hexane-3-carbonyl)-L-leucine] | < 1 |
| CC(=O)c1cn(CC(=O)N2[C@H](C(=O)Nc3nc(C(F)(F)F)ccc3C)C[C@@]3(C)C[C@@H]23)c2c(C)cc(-c3cnc(C)nc3)cc12 [Compound 459, (1R,3S,5R)-2-(2-(3-acetyl-7-methyl-5-(2-methylpyrimidin-5-yl)-1H-indol-1-yl)acetyl)-5-methyl-N-(3-methyl-6-(trifluoromethyl)pyridin-2-yl)-2-azabicyclo[3.1.0]hexane-3-carboxamide] | < 1 |
| CC(=O)c1nn(CC(=O)N2[C@H](C(=O)Nc3cccn(-c4ccccn4)c3=O)C[C@@]3(C)C[C@@H]23)c2c(C)cc(-c3cnc(C)nc3)cc12 [Compound 460, (1R,3S,5R)-2-{2-[3-Acetyl-7-methyl-5-(2-methylpyrimidin-5-yl)indazol-1-yl]acetyl}-5-methyl-N-{2-oxo-[1,2′-bipyridine]-3-yl}-2-azabicyclo[3.1.0]hexane-3-carboxamide] | < 1 |
| CC(=O)c1nn(CC(=O)N2[C@H](C(=O)Nc3cc(Br)ncc3F)C[C@@]3(C)C[C@@H]23)c2cnc(-c3cnc(C)nc3)cc12 [Compound 461, (1R,3S,5R)-2-(2-(3-acetyl-5-(2-methylpyrimidin-5-yl)-1H-pyrazolo[3,4-c]pyridin-1-yl)acetyl)-N-(2-bromo-5-fluoropyridin-4-yl)-5-methyl-2-azabicyclo[3.1.0]hexane-3-carboxamide] | 1 to 10 |
| CC(=O)c1nn(CC(=O)N2[C@H](C(=O)N[C@H](Cc3ccccc3)C(=O)O)C[C@@]3(C)C[C@@H]23)c2c(C)cc(-c3cnc(C)nc3)cc12 [Compound 462, ((1R,3S,5R)-2-(2-(3-acetyl-7-methyl-5-(2-methylpyrimidin-5-yl)-1H-indazol-1-yl)acetyl)-5-methyl-2-azabicyclo[3.1.0]hexane-3-carbonyl)-D-phenylalanine] | 1 to 10 |
| CC(=O)c1nn(CC(=O)N2[C@H](C(=O)N[C@H](CC(C)C)C(=O)O)C[C@@]3(C)C[C@@H]23)c2c(C)cc(-c3cnc(C)nc3)cc12 [Compound 464, ((1R,3S,5R)-2-(2-(3-acetyl-7-methyl-5-(2-methylpyrimidin-5-yl)-1H-indazol-1-yl)acetyl)-5-methyl-2-azabicyclo[3.1.0]hexane-3-carbonyl)-D-leucine] | 1 to 10 |
| Cc1ncc(-c2ccc3c(c2)c(C(=O)C(F)(F)F)cn3CC(=O)N2[C@H](C(=O)Nc3nc(Br)ccc3C)C[C@@]3(C)C[C@@H]23)cn1 [Compound 465, (1R,3S,5R)-N-(6-bromo-3-methylpyridin-2-yl)-5-methyl-2-(2-(5-(2-methylpyrimidin-5-yl)-3-(2,2,2-trifluoroacetyl)-1H-indol-1-yl)acetyl)-2-azabicyclo[3.1.0]hexane-3-carboxamide] | < 1 |
| CC(=O)c1nn(CC(=O)N2[C@H](C(=O)Nc3nc(Br)ccc3C)C[C@@]3(C)C[C@@H]23)c2cc(F)c(-c3cnc(C)nc3)cc12 [Compound 466, (1R,3S,5R)-2-(2-(3-acetyl-6-fluoro-5-(2-methylpyrimidin-5-yl)-1H-indazol-1-yl)acetyl)-N-(6-bromo-3-methylpyridin-2-yl)-5-methyl-2-azabicyclo[3.1.0]hexane-3-carboxamide] | < 1 |
| COC(=O)c1nn(CC(=O)N2[C@H](C(=O)Nc3nc(Br)ccc3C)C[C@@]3(C)C[C@@H]23)c2ccc(-c3cnc(C)nc3)cc12 [Compound 467, Methyl 1-{2-[(1R,3S,5R)-3-[(6-bromo-3-methylpyridin-2-yl)carbamoyl]-5-methyl-2-azabicyclo[3.1.0]hexan-2-yl]-2-oxoethyl}-5-(2-methylpyrimidin-5-yl)indazole-3-carboxylate] | < 1 |
| Cc1ncc(-c2ccc3c(c2)c(C(=O)O)nn3CC(=O)N2[C@H](C(=O)Nc3nc(Br)ccc3C)C[C@@]3(C)C[C@@H]23)cn1 [Compound 469, 1-{2-[(1R,3S,5R)-3-[(6-Bromo-3-methylpyridin-2-yl)carbamoyl]-5-methyl-2-azabicyclo[3.1.0]hexan-2-yl]-2-oxoethyl}-5-(2-methylpyrimidin-5-yl)indazole-3-carboxylic Acid] | > 10 |
| Cc1ncc(-c2cc3c(C(=O)C(F)(F)F)cn(CC(=O)N4[C@H](C(=O)Nc5nc(Br)ccc5C)C[C@@]5(C)C[C@@H]45)c3cn2)cn1 [Compound 470, (1R,3S,5R)-N-(6-bromo-3-methylpyridin-2-yl)-5-methyl-2-(2-(5-(2-methylpyrimidin-5-yl)-3-(2,2,2-trifluoroacetyl)-1H-pyrrolo[2,3-c]pyridin-1-yl)acetyl)-2-azabicyclo[3.1.0]hexane-3-carboxamide] | < 1 |
| CC(=O)c1cn(CC(=O)N2[C@H](C(=O)Nc3nc(Br)c(F)cc3C)C[C@@]3(C)C[C@@H]23)c2c(C)nc(-c3cnc(C)nc3)cc12 [Compound 471] | < 1 |
| CC(=O)c1cn(CC(=O)N2[C@H](C(=O)Nc3nc(Br)ccc3C)C[C@@]3(C)C[C@@H]23)c2c(C)nc(-c3cnc(C)nc3)cc12 [Compound 472, (1R,3S,5R)-2-(2-(3-Acetyl-7-methyl-5-(2-methylpyrimidin-5-yl)-1H-pyrrolo[2,3-c]pyridin-1-yl)acetyl)-N-(6-bromo-3-methylpyridin-2-yl)-5-methyl-2-azabicyclo[3.1.0]hexane-3-carboxamide] | < 1 |
| CCNC(=O)c1nn(CC(=O)N2[C@H](C(=O)Nc3nc(Br)ccc3C)C[C@@]3(C)C[C@@H]23)c2ccc(-c3cnc(C)nc3)cc12 [Compound 474, 1-{2-[(1R,3S,5R)-3-[(6-Bromo-3-methylpyridin-2-yl)carbamoyl]-5-methyl-2-azabicyclo[3.1.0]hexan-2-yl]-2-oxoethyl}-N-ethyl-5-(2-methylpyrimidin-5-yl)indazole-3-carboxamide] | < 1 |

same assay, conditions: Table 8; Factor D 80 nM, substrate Z-L-Lys-SBz; read-out: IC50

| Structure (SMILES) | IC50 [µM] |
| --- | --- |
| CCCNC(=O)c1nn(CC(=O)N2[C@H](C(=O)Nc3nc(Br)ccc3C)C[C@@]3(C)C[C@@H]23)c2ccc(-c3cnc(C)nc3)cc12 [Compound 475] | < 1 |
| CCCCNC(=O)c1nn(CC(=O)N2[C@H](C(=O)Nc3nc(Br)ccc3C)C[C@@]3(C)C[C@@H]23)c2ccc(-c3cnc(C)nc3)cc12 [Compound 476] | < 1 |
| CCCCCNC(=O)c1nn(CC(=O)N2[C@H](C(=O)Nc3nc(Br)ccc3C)C[C@@]3(C)C[C@@H]23)c2ccc(-c3cnc(C)nc3)cc12 [Compound 477, 1-(2-((1R,3S,5R)-3-((6-bromo-3-methylpyridin-2-yl)carbamoyl)-5-methyl-2-azabicyclo[3.1.0]hexan-2-yl)-2-oxoethyl)-5-(2-methylpyrimidin-5-yl)-N-pentyl-1H-indazole-3-carboxamide] | > 10 |
| Cc1ncc(-c2ccc3c(c2)c(C(=O)NCC2CC2)nn3CC(=O)N2[C@H](C(=O)Nc3nc(Br)ccc3C)C[C@@]3(C)C[C@@H]23)cn1 [Compound 478, 1-(2-((1R,3S,5R)-3-((6-bromo-3-methylpyridin-2-yl)carbamoyl)-5-methyl-2-azabicyclo[3.1.0]hexan-2-yl)-2-oxoethyl)-N-(cyclopropylmethyl)-5-(2-methylpyrimidin-5-yl)-1H-indazole-3-carboxamide] | < 1 |
| Cc1ncc(-c2ccc3c(c2)c(C(=O)NCC2CCC2)nn3CC(=O)N2[C@H](C(=O)Nc3nc(Br)ccc3C)C[C@@]3(C)C[C@@H]23)cn1 [Compound 479] | 1 to 10 |
